The nature of data set [1]: Partition coefficient (logD). As to conditions: octanol/water.
In data set [2] the target is Sodium-dependent dopamine transporter (Rattus norvegicus, UniProt P23977). In words: biochemical. Type of data set: tissue-based, Brain.
Description: Binding affinity at dopamine transporter in rat brain by [3H]WIN-35428 displacement.
Data set [3] addresses T1, Muscarinic acetylcholine receptor M1 (Rattus norvegicus, UniProt P08482).
T1 sequence (P08482 whole entry): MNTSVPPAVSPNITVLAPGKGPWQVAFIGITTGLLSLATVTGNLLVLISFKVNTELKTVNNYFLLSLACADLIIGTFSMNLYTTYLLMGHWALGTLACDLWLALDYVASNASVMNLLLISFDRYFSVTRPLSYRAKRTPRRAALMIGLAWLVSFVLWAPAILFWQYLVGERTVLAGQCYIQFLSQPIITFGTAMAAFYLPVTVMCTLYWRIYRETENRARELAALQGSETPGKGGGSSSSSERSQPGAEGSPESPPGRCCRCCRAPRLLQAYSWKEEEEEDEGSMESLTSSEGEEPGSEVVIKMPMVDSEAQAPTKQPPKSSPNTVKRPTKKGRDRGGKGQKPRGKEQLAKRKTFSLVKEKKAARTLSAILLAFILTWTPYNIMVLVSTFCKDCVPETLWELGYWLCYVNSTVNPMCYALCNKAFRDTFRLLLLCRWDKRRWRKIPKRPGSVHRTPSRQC
In words: Binding affinity at muscarinic M1 receptor in rat brain by [3H]pirenzepine displacement. Type of data set: tissue-based.

Data set [4] addresses Norepinephrine transporter (Rattus norvegicus, UniProt Q9WTR4). Description: Displacement of [3H]nisoxetine from norepinephrine transporter (NET) of rat brain. Type of data set: tissue-based.
Data set [5] is filed under the species Rattus norvegicus. Description: Compound was tested for inhibition of [3H]dopamine uptake (DAUI) in rat synaptosomes. It is filed as functional. As to conditions: Brain.
The target in data set [6] is Sodium-dependent serotonin transporter (Rattus norvegicus, UniProt P31652). Description: Binding affinity at serotonin transporter in rat brain by [3H]-citalopram displacement. It is filed as tissue-based.
Chain of Sodium-dependent serotonin transporter (P31652 whole entry): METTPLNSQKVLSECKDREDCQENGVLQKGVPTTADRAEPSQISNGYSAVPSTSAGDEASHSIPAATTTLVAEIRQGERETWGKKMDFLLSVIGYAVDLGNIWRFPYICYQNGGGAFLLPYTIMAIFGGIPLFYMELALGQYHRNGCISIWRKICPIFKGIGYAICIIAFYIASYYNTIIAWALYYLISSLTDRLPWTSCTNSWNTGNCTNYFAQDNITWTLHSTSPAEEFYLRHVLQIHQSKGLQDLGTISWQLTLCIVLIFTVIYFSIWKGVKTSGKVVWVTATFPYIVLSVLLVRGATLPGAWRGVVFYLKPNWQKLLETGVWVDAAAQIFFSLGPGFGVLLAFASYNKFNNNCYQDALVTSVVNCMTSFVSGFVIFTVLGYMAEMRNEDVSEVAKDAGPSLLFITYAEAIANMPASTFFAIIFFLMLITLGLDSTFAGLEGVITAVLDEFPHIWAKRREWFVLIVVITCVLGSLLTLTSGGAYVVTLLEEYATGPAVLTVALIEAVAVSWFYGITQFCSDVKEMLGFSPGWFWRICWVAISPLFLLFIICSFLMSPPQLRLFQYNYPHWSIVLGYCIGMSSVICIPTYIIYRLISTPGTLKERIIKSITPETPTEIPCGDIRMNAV

Chain of Sodium-dependent dopamine transporter (P23977 whole entry): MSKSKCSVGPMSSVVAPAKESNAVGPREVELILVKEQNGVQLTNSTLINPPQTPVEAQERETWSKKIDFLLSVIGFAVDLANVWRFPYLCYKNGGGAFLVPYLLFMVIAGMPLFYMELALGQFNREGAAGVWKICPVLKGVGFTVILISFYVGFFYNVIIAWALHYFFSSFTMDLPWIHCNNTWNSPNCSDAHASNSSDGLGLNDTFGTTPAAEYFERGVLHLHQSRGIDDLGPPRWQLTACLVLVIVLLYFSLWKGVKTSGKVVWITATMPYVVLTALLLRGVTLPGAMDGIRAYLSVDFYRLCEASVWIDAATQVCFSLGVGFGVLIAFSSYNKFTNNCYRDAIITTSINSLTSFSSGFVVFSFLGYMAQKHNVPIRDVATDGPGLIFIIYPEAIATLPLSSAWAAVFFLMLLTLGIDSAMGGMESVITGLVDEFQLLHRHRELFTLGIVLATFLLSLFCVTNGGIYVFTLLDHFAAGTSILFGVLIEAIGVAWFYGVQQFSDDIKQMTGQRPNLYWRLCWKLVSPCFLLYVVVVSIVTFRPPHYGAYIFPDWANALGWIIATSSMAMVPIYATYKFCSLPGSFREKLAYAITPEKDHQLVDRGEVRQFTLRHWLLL
Chain of Norepinephrine transporter (Q9WTR4 whole entry): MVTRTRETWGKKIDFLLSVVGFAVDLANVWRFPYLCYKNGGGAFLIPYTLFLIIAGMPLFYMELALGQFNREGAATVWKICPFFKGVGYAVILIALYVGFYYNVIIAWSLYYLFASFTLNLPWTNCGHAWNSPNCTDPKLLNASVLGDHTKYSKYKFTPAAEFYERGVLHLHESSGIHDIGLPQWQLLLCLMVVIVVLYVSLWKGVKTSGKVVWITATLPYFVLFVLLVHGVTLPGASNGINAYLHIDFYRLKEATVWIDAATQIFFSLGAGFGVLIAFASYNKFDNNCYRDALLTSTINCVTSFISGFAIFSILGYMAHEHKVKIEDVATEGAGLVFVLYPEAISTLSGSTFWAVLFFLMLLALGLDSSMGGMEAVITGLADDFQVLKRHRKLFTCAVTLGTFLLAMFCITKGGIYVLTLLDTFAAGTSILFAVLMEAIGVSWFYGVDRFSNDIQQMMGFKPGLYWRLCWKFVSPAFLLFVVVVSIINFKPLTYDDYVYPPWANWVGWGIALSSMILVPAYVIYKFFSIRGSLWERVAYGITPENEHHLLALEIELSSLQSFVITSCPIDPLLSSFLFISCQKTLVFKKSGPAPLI

As to `Fc1ccc(C(OC2CC3CCC(C2)N3CCOCc2cccs2)c2ccc(F)cc2)cc1` (centres undefined), in data set [1], the logD was determined as 4.19. Besides, the Ki in data set [2] is 65.9 nM; in data set [3], 613 nM; in data set [4], 3450 nM; in data set [6], 2090 nM. In data set [5], this compound yielded an IC50 of 18.7 nM.

`Fc1ccc(C(OC2CC3CCC(C2)N3CCCOc2ccccc2)c2ccc(F)cc2)cc1` (centres undefined): the Ki in data set [2] was 703 nM; in data set [3], 9280 nM; in data set [4], 12100 nM; in data set [6] it was 7730 nM. Besides, it took 227 nM to reach half-maximal inhibition in data set [5] (IC50).

Turning to `O=C(NCCN1C2CCC1CC(OC(c1ccc(F)cc1)c1ccc(F)cc1)C2)c1cccnc1` (centres undefined), the IC50 in data set [5] was found to be 14.2 nM.

With `NCCN1[C@@H]2CC[C@H]1C[C@@H](OC(c1ccc(F)cc1)c1ccc(F)cc1)C2`, the Ki in data set [4] stood at 1420 nM; in data set [6], 4600 nM. The compound further came in with an IC50 in data set [5] of 26 nM.

Compound `Fc1ccc(C(OC2CC3CCC(C2)N3CCNCc2ccccc2)c2ccc(F)cc2)cc1` (centres undefined) registered an IC50 in data set [5] of 8.1 nM.

For the compound `COC(=O)[C@@H]1C2CC[C@@H](C[C@@H]1OC(=O)c1ccccc1)N2C` (single isomer, unassigned) [COCAINE], in data set [1], the logD turned out to be 1.51.

Regarding `O=C(NCCN1C2CCC1CC(OC(c1ccc(F)cc1)c1ccc(F)cc1)C2)c1ccccc1` (centres undefined), the Ki in data set [2] came out at 13.1 nM; in data set [3], 556 nM; in data set [4] it was 637 nM; in data set [6], 597 nM. In data set [5], this compound had an IC50 of 6.5 nM.

Turning to `Fc1ccc(C(OC2CC3CCC(C2)N3CCOCCN2CCOCC2)c2ccc(F)cc2)cc1` (centres undefined), in data set [1], the logD was 2.05. In addition, the Ki in data set [2] is 1620 nM; in data set [3] it was 15800 nM; in data set [4] it was 28100 nM; in data set [6] it was 23000 nM. The IC50 in data set [5] came to 659 nM.

Take `O=C(CCN1[C@@H]2CC[C@H]1C[C@@H](OC(c1ccc(F)cc1)c1ccc(F)cc1)C2)Nc1ccccc1`: the inhibition constant (Ki) is 27.6 nM in data set [2], 3280 nM in data set [3], 1420 nM in data set [4] and 1490 nM in data set [6]. For the same compound, half-maximal inhibition in data set [5] (IC50) was put at 5 nM.

Take `Fc1ccc(C(OC2CC3CCC(C2)N3CCOCc2ccccc2)c2ccc(F)cc2)cc1` (centres undefined): the Ki in data set [2] came out at 48.5 nM; in data set [3], 390 nM; in data set [4] it was 3060 nM; in data set [6], 1300 nM. The IC50 in data set [5] turned out to be 22.3 nM.

On to `OCCOCCN1C2CCC1CC(OC(c1ccc(F)cc1)c1ccc(F)cc1)C2` (centres undefined), for which the log distribution coefficient (logD) in data set [1] came to 2.01. Besides, the Ki in data set [2] stood at 42.6 nM; in data set [3], 336 nM; in data set [4], 3650 nM; in data set [6], 14300 nM. This compound also gave an IC50 in data set [5] of 48.9 nM.

Source of the values: ChEMBL document CHEMBL1148338, “Structure-activity relationships at monoamine transporters for a series of N-substituted 3alpha-(bis[4-fluorophenyl]methoxy)tropanes: comparative molecular field analysis, synthesis, and pharmacological evaluation” (J Med Chem, 2004).
